Data reported in paper PMC11477000, “Enantioselective Binding of Proton Pump Inhibitors to Alpha1-Acid Glycoprotein and Human Serum Albumin—A Chromatographic, Spectroscopic, and In Silico Study” (International Journal of Molecular Sciences, 2024).

Assays:
[1] = test system: α1-acid glycoprotein (AGP); assay: HPLC on AGP-based chiral stationary phase (ChromTech Chiral-AGP column); format: binding, human; conditions: 10 mM pH 7 phosphate buffer, 25 °C
Method: HPLC using a protein-based chiral stationary phase is a fully automated method for obtaining rapid information about the binding of compounds to the respective proteins. Enantioseparation occurs in the case of unequal binding constants of the individual enantiomers to the immobilized proteins, thus allowing enantioselective binding to be characterized even when a racemic mixture was injected. As a preliminary step, the enantiospecific binding was investigated on columns containing AGP and HSA in various alcohol:buffer mixtures. A pH 7 phosphate buffer was employed as the aqueous part of the mobile phase, while for the organic part, three different alcohols were evaluated. […]
(§1) Chromatographic measurements were carried out on two separate HPLC systems. The AGP binding study was performed on a Waters 2695e chromatographic system paired with a Waters 2996 PDA detector, controlled by Empower 3 FR5 (Waters Corp., Milford, MA, USA), while the HSA binding study was performed on an Agilent 1100 HPLC system, consisting of an inline degasser (G1322A), a quaternary pump (G1311A), an automatic injector (G1329A) paired with sample thermostat (G1330A), a column thermostat (G1316A), and a diode array detector (G1315A) with Agilent Chemstation B04.03-SP2 software (Agilent, Bronnwald, Germany). For the binding studies, two protein-based chiral stationary phases were utilized. The chromatographic binding study for AGP was conducted on a ChromTech Chiral-AGP column (150 mm × 4.0 mm; ChromTech Ltd., Congleton, UK), while the binding study for HSA was performed on a Daicel Chiralpak HSA column (50 mm × 4.0 mm; Daicel Corp., Osaka, Japan). The detection wavelength was 210 nm for all measurements. The stock solutions of PPIs were prepared at a concentration of 1 mg/mL in MeOH. Subsequent dilutions were prepared using water. The injected samples were mixed and diluted from the stock solutions. The final concentration for the eutomer was 0.2 mg/mL, and for the distomer, it was 0.1 mg/mL. A volume of 2 μL was injected. To mitigate the instability of PPIs in aqueous solutions, the samples were kept at a temperature of 4 °C.

[2] = target: T1, human serum albumin (HSA) (Homo sapiens, UniProt P02768); assay: HPLC on HSA-based chiral stationary phase (Daicel Chiralpak HSA column); format: binding; conditions: HSA column, 25 °C
T1 sequence (P02768 25-609): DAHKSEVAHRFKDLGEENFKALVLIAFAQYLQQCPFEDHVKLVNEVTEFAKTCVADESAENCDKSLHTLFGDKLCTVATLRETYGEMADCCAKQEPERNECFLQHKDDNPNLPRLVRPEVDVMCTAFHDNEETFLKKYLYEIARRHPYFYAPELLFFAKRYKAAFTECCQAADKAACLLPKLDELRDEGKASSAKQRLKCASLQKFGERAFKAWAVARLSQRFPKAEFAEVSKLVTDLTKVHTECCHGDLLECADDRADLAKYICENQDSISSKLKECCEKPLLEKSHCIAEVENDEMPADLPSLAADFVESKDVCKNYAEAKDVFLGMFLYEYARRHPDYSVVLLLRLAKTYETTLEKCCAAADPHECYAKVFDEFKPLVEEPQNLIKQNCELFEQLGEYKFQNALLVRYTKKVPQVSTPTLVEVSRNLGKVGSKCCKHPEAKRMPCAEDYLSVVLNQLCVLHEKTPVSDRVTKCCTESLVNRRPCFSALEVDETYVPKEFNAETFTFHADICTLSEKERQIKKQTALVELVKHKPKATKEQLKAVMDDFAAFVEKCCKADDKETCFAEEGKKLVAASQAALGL
Method: HPLC using a protein-based chiral stationary phase is a fully automated method for obtaining rapid information about the binding of compounds to the respective proteins. Enantioseparation occurs in the case of unequal binding constants of the individual enantiomers to the immobilized proteins, thus allowing enantioselective binding to be characterized even when a racemic mixture was injected. As a preliminary step, the enantiospecific binding was investigated on columns containing AGP and HSA in various alcohol:buffer mixtures. A pH 7 phosphate buffer was employed as the aqueous part of the mobile phase, while for the organic part, three different alcohols were evaluated.
In the following step, we investigated the effect of changing some other chromatographic conditions on the protein binding. The pH of the aqueous phase influenced the protonation state of both the analyte and the proteins. It should be noted that the pH tolerance of protein-based columns is narrow due to the possible denaturation of proteins. Taking into account the guidelines of the manufacturer, three different pH values were investigated (pH 6, 6.5, and 7) at a 95:5 (v/v%) buffer:IPA eluents ratio [49]. The buffer was uniformly 10 mM phosphate. […] The effect of different buffer constituents was also evaluated. In addition to phosphate buffer, ammonium acetate, ammonium bicarbonate, and sodium citrate were tested and compared under the same conditions.
as §1

[3] = target: T1, human serum albumin (HSA); assay: Displacement chromatography on HSA column with warfarin and ibuprofen as competitors; format: binding; conditions: IPA:10 mM pH 7 phosphate buffer 1:99, 25 °C
Method: For identification of the binding site of HSA, a displacement chromatography and fluorescence displacement study were performed. In the case of chromatography, to the mobile phase, increasing concentrations of the competitors, warfarin and ibuprofen, that are known to bind to specific binding sites on HSA, Sudlow site I and Sudlow site II, respectively, were added. In the case of the fluorescence displacement study, the fluorescence quenching data of the PPI-HSA system in the presence of warfarin and ibuprofen were investigated.
(Chromatographic parameter: Column temperature: 25 °C,
mobile phase: IPA : 10 mM pH 7 sodium phosphate buffer 1:99, flow rate: 0.7 mL/min, detection

[4] = 1% EtOH, 10 mM pH 7 phosphate buffer
[5] = 1% IPA, 10 mM pH 7 phosphate buffer
[6] = 1% MeOH, 10 mM pH 7 phosphate buffer
[7] = 2.5% EtOH, 10 mM pH 7 phosphate buffer
[8] = 2.5% IPA, 10 mM pH 7 phosphate buffer
[9] = 2.5% MeOH, 10 mM pH 7 phosphate buffer
[10] = 5% EtOH, 10 mM pH 7 phosphate buffer
[11] = 5% IPA, 10 mM pH 7 phosphate buffer
[12] = 5% MeOH, 10 mM pH 7 phosphate buffer
[13] = 7.5% EtOH, 10 mM pH 7 phosphate buffer
[14] = 7.5% IPA, 10 mM pH 7 phosphate buffer
[15] = 7.5% MeOH, 10 mM pH 7 phosphate buffer
[16] = 10% EtOH, 10 mM pH 7 phosphate buffer
[17] = 10% IPA, 10 mM pH 7 phosphate buffer
[18] = 10% MeOH, 10 mM pH 7 phosphate buffer
[19] = 12.5% IPA, 10 mM pH 7 phosphate buffer

Cc1c(OCC(F)(F)F)ccnc1C[S+]([O-])c1nc2ccccc2[nH]1 (stereo not shown) [Lansoprazole, lansoprazole]
k1 retention factor (first-eluting enantiomer) ([1]; 2.5% IPA): 15.75
k2 retention factor (second-eluting enantiomer) ([1]; 2.5% IPA): 19.61
k1 retention factor (first-eluting enantiomer) ([1]; 5% EtOH): 14.52
k2 retention factor (second-eluting enantiomer) ([1]; 5% EtOH): 18.43
k1 retention factor (first-eluting enantiomer) ([1]; 5% IPA): 6.88
k2 retention factor (second-eluting enantiomer) ([1]; 5% IPA): 9.12
k1 retention factor (first-eluting enantiomer) ([1]; 5% MeOH): 22.63
k2 retention factor (second-eluting enantiomer) ([1]; 5% MeOH): 28.55
k1 retention factor (first-eluting enantiomer) ([1]; 7.5% EtOH): 8.24
k2 retention factor (second-eluting enantiomer) ([1]; 7.5% EtOH): 10.64
k1 retention factor (first-eluting enantiomer) ([1]; 7.5% IPA): 4.00
k2 retention factor (second-eluting enantiomer) ([1]; 7.5% IPA): 5.28
k1 retention factor (first-eluting enantiomer) ([1]; 7.5% MeOH): 14.63
k2 retention factor (second-eluting enantiomer) ([1]; 7.5% MeOH): 18.79
k1 retention factor (first-eluting enantiomer) ([1]; 10% EtOH): 5.13
k2 retention factor (second-eluting enantiomer) ([1]; 10% EtOH): 6.62
k1 retention factor (first-eluting enantiomer) ([1]; 10% IPA): 2.67
k2 retention factor (second-eluting enantiomer) ([1]; 10% IPA): 3.47
k1 retention factor (first-eluting enantiomer) ([1]; 10% MeOH): 9.96
k2 retention factor (second-eluting enantiomer) ([1]; 10% MeOH): 12.56
k1 retention factor (first-eluting enantiomer) ([1]; 12.5% IPA): 1.95
k2 retention factor (second-eluting enantiomer) ([1]; 12.5% IPA): 2.47
k1 retention factor (first-eluting enantiomer) ([1]; 15% EtOH): 2.54
k2 retention factor (second-eluting enantiomer) ([1]; 15% EtOH): 3.21
k1 retention factor (first-eluting enantiomer) ([1]; 15% IPA): 1.48
k2 retention factor (second-eluting enantiomer) ([1]; 15% IPA): 1.83
k1 retention factor (first-eluting enantiomer) ([1]; 15% MeOH): 7.02
k2 retention factor (second-eluting enantiomer) ([1]; 15% MeOH): 8.75
EEO enantiomer elution order [2, 4]: R < S
Rs resolution [2, 4]: 1.0
k1 retention factor (first-eluting enantiomer) [2, 4]: 10.13
k2 retention factor (second-eluting enantiomer) [2, 4]: 14.32
EEO enantiomer elution order [2, 5]: R < S
Rs resolution [2, 5]: 1.8
k1 retention factor (first-eluting enantiomer) [2, 5]: 11.17
k2 retention factor (second-eluting enantiomer) [2, 5]: 18.27
EEO enantiomer elution order [2, 6]: R < S
Rs resolution [2, 6]: 1.0
k1 retention factor (first-eluting enantiomer) [2, 6]: 10.66
k2 retention factor (second-eluting enantiomer) [2, 6]: 15.61
EEO enantiomer elution order [2, 7]: R < S
Rs resolution [2, 7]: 0.3
k1 retention factor (first-eluting enantiomer) [2, 7]: 6.92
k2 retention factor (second-eluting enantiomer) [2, 7]: 8.39
EEO enantiomer elution order [2, 8]: R < S
Rs resolution [2, 8]: 1.0
k1 retention factor (first-eluting enantiomer) [2, 8]: 9.26
k2 retention factor (second-eluting enantiomer) [2, 8]: 12.87
EEO enantiomer elution order [2, 9]: R < S
Rs resolution [2, 9]: 0.8
k1 retention factor (first-eluting enantiomer) [2, 9]: 7.92
k2 retention factor (second-eluting enantiomer) [2, 9]: 10.16
k1 retention factor (first-eluting enantiomer) [2, 10]: 5.26
k2 retention factor (second-eluting enantiomer) [2, 10]: 5.26
EEO enantiomer elution order [2, 11]: R < S
Rs resolution [2, 11]: 0.2
k1 retention factor (first-eluting enantiomer) [2, 11]: 5.79
k2 retention factor (second-eluting enantiomer) [2, 11]: 6.63
EEO enantiomer elution order [2, 12]: R < S
Rs resolution [2, 12]: 0.2
k1 retention factor (first-eluting enantiomer) [2, 12]: 6.05
k2 retention factor (second-eluting enantiomer) [2, 12]: 7.29
k1 retention factor (first-eluting enantiomer) [2, 13]: 4.11
k2 retention factor (second-eluting enantiomer) [2, 13]: 4.11
k1 retention factor (first-eluting enantiomer) [2, 14]: 4.37
k2 retention factor (second-eluting enantiomer) [2, 14]: 4.37
k1 retention factor (first-eluting enantiomer) [2, 15]: 4.92
k2 retention factor (second-eluting enantiomer) [2, 15]: 4.92
k1 retention factor (first-eluting enantiomer) [2, 16]: 3.24
k2 retention factor (second-eluting enantiomer) [2, 16]: 3.24
k1 retention factor (first-eluting enantiomer) [2, 17]: 3.45
k2 retention factor (second-eluting enantiomer) [2, 17]: 3.45
k1 retention factor (first-eluting enantiomer) [2, 18]: 4.03
k2 retention factor (second-eluting enantiomer) [2, 18]: 4.03
k1 retention factor (first-eluting enantiomer) [2, 19]: 2.71
k2 retention factor (second-eluting enantiomer) [2, 19]: 2.71
Rs resolution ([2]; acetate buffer, 1% 2-propanol): 1.8
Rs resolution ([2]; bicarbonate buffer, 1% 2-propanol): 1.2
Rs resolution ([2]; citrate buffer, 1% 2-propanol): 1.9
Rs resolution ([2]; phosphate buffer, 1% 2-propanol): 1.8

Cc1c(OCC(F)(F)F)ccnc1C[S@@+]([O-])c1nc2ccccc2[nH]1 [R-lansoprazole, dexlansoprazole]
k retention factor ([3]; ibuprofen 0 mM): 18.27
k retention factor ([3]; ibuprofen 0.01 mM): 13.98
k retention factor ([3]; ibuprofen 0.05 mM): 10.41
k retention factor ([3]; ibuprofen 0.1 mM): 7.60
k retention factor ([3]; warfarin 0 mM): 18.27
k retention factor ([3]; warfarin 0.01 mM): 14.84
k retention factor ([3]; warfarin 0.05 mM): 12.07
k retention factor ([3]; warfarin 0.1 mM): 10.51
